Laboratory results published in patent US8436043B2 (Takeda Pharmaceutical Company Limited, priority 2008, dated 2013).

Molecular target: T1, human glucagon receptor (Homo sapiens, UniProt P47871)
T1 construct: made in house; host or cells: FreeStyle CHO cells, transient transfection with pMSRαneo/hGCGR; membrane fraction (35,000 rpm pellet)
Experiment: Glucagon binding inhibitory activity ([125I]-glucagon binding to glucagon receptor membrane protein)
Conditions: test compound 10 μM; 0.4% DMSO = 0%, non-labeled glucagon 1 μM = 100%; read-out: inhibitory rate (%) at 10 μM
Procedure, shortened: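 Receptor source was a membrane fraction of transiently transfected CHO cells bearing human receptor; 90 min room-temperature binding, filtration harvest, scintillation counting.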

T1 sequence (P47871 26-477): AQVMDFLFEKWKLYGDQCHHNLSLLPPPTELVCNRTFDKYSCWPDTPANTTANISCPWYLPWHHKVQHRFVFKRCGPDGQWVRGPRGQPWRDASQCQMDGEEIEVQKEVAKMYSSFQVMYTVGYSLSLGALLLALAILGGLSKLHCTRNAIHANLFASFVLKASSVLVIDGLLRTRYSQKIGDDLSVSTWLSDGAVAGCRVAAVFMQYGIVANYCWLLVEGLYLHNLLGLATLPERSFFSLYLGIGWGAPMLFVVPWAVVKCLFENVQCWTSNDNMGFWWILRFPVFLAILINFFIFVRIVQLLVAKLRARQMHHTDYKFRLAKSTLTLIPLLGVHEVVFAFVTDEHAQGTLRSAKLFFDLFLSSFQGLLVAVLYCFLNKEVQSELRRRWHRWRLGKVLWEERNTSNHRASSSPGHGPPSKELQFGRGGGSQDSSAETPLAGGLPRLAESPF

SMILES	inhibition at 10 µM
Cc1c(C(Nc2ccc(C(=O)N(C)CCC(=O)O)cc2)C2CCCCC2)oc2ccc(OC3CCSCC3)cc12 (stereo not shown) [Example A160, 3-[{[4-({cyclohexyl[3-methyl-5-(tetrahydro-2H-thiopyran-4-yloxy)-1-benzofuran-2-yl]methyl}amino)phenyl]carbonyl}(methyl)amino]propanoic acid]	92%
Cc1c(C(Nc2ccc(C(=O)NCCC(=O)O)cc2)C2CCCCC2)oc2cccc(F)c12 (stereo not shown) [Example A161, 3-{[(4-{[cyclohexyl(4-fluoro-3-methyl-1-benzofuran-2-yl)methyl]amino}phenyl)carbonyl]amino}propanoic acid]	84%
Cc1c(C(Nc2ccc(C(=O)N(C)CCC(=O)O)cc2)C2CCCCC2)oc2cccc(F)c12 (stereo not shown) [Example A162]	79%
Cc1c(C(Nc2ccc(C(=O)NCCC(=O)O)cc2)C2CCCCC2)oc2c(F)cc(F)cc12 (stereo not shown) [Example A163, 3-{[(4-{[cyclohexyl(5,7-difluoro-3-methyl-1-benzofuran-2-yl)methyl]amino}phenyl)carbonyl]amino}propanoic acid]	87%
Cc1c(C(Nc2ccc(C(=O)N(C)CCC(=O)O)cc2)C2CCCCC2)oc2c(F)cc(F)cc12 (stereo not shown) [Example A164, 3-{[(4-{[cyclohexyl(5,7-difluoro-3-methyl-1-benzofuran-2-yl)methyl]amino}phenyl)carbonyl](methyl)amino}propanoic acid]	85%
Cc1c(C(C)Nc2ccc(C(=O)NCCC(=O)O)cc2)oc2ccc(OCc3ccccc3)cc12 (stereo not shown) [Example A165, 3-({[4-({1-[5-(benzyloxy)-3-methyl-1-benzofuran-2-yl]ethyl}amino)phenyl]carbonyl}amino)propanoic acid]	85%
Cc1c(C(C)Nc2ccc(C(=O)N(C)CCC(=O)O)cc2)oc2ccc(OCc3ccccc3)cc12 (stereo not shown) [Example A166, 3-[{[4-({1-[5-(benzyloxy)-3-methyl-1-benzofuran-2-yl]ethyl}amino)phenyl]carbonyl}(methyl)amino]propanoic acid]	75%
Cc1c(C(Nc2ccc(C(=O)NCCC(=O)O)cc2)C2CCCCC2)oc2ccc(OCc3ccnc(F)c3)cc12 (stereo not shown) [Example A167, 3-[({4-[(cyclohexyl{5-[(2-fluoropyridin-4-yl)methoxy]-3-methyl-1-benzofuran-2-yl}methyl)amino]phenyl}carbonyl)amino]propanoic acid]	86%
Cc1c(C(Nc2ccc(C(=O)N(C)CCC(=O)O)cc2)C2CCCCC2)oc2ccc(OCc3ccnc(F)c3)cc12 (stereo not shown) [Example A168, 3-[({4-[(cyclohexyl{5-[(2-fluoropyridin-4-yl)methoxy]-3-methyl-1-benzofuran-2-yl}methyl)amino]phenyl}carbonyl)(methyl)amino]propanoic acid]	90%
Cc1c(C(Nc2ccc(C(=O)NCCC(=O)O)cc2)C2CCCCC2)oc2ccc(OCc3ccc(Cl)nc3)cc12 (stereo not shown) [Example A169, 3-{[(4-{[{5-[(6-chloropyridin-3-yl)methoxy]-3-methyl-1-benzofuran-2-yl}(cyclohexyl)methyl]amino}phenyl)carbonyl]amino}propanoic acid]	86%
Cc1c(C(Nc2ccc(C(=O)N(C)CCC(=O)O)cc2)C2CCCCC2)oc2ccc(OCc3ccc(Cl)nc3)cc12 (stereo not shown) [Example A170, 3-{[(4-{[{5-[(6-chloropyridin-3-yl)methoxy]-3-methyl-1-benzofuran-2-yl}(cyclohexyl)methyl]amino}phenyl)carbonyl](methyl)amino}-propanoic acid]	89%
Cc1c(C(Nc2ccc(C(=O)NCCC(=O)O)cc2)C(C)C)oc2ccc(OCc3ccccc3)cc12 (stereo not shown) [Example A171, 3-({[4-({1-[5-(benzyloxy)-3-methyl-1-benzofuran-2-yl]-2-methylpropyl}amino)phenyl]carbonyl}amino)propanoic acid]	86%
Cc1c(C(Nc2ccc(C(=O)N(C)CCC(=O)O)nc2)C(C)C)oc2ccc(OCc3ccccc3)cc12 (stereo not shown) [Example A172, 3-[{[5-({1-[5-(benzyloxy)-3-methyl-1-benzofuran-2-yl]-2-methylpropyl}amino)pyridin-2-yl]carbonyl}(methyl)amino]propanoic acid]	82%
COCCOc1ccc2oc(C(Nc3ccc(C(=O)N(C)CCC(=O)O)cc3)C(C)C)c(C)c2c1 (stereo not shown) [Example A173, 3-[{[4-({1-[5-(2-methoxyethoxy)-3-methyl-1-benzofuran-2-yl]-2-methylpropyl}amino)phenyl]carbonyl}(methyl)amino]propanoic acid]	74%
COc1ccc(-c2ccc3oc(C(Nc4ccc(C(=O)N(C)CCC(=O)O)cc4)C4CCCCC4)c(C)c3c2)cn1 (stereo not shown) [Example A174, 3-[{[4-({cyclohexyl[5-(6-methoxypyridin-3-yl)-3-methyl-1-benzofuran-2-yl]methyl}amino)phenyl]carbonyl}(methyl)amino]propanoic acid]	98%
Cc1c(C(Nc2ccc(C(=O)N(C)CCC(=O)O)cc2)C(C)C)oc2cccc(F)c12 (stereo not shown) [Example A175, 3-{[(4-{[1-(4-fluoro-3-methyl-1-benzofuran-2-yl)-2-methylpropyl]amino}phenyl)carbonyl](methyl)amino}propanoic acid]	68%
Cc1c(C(Nc2ccc(C(=O)N(C)CCC(=O)O)cc2)C2CCCCC2)oc2ccc(-c3ccccc3)cc12 (stereo not shown) [Example A176, 3-{[(4-{[cyclohexyl(3-methyl-5-phenyl-1-benzofuran-2-yl)methyl]amino}phenyl)carbonyl](methyl)amino}propanoic acid]	96%
COc1ncccc1-c1ccc2oc(C(Nc3ccc(C(=O)N(C)CCC(=O)O)cc3)C3CCCCC3)c(C)c2c1 (stereo not shown) [Example A177, 3-[{[4-({cyclohexyl[5-(2-methoxypyridin-3-yl)-3-methyl-1-benzofuran-2-yl]methyl}amino)phenyl]carbonyl}(methyl)amino]propanoic acid]	90%
Cc1noc(C)c1-c1ccc2oc(C(Nc3ccc(C(=O)N(C)CCC(=O)O)cc3)C3CCCCC3)c(C)c2c1 (stereo not shown) [Example A178, 3-[{[4-({cyclohexyl[5-(3,5-dimethylisoxazol-4-yl)-3-methyl-1-benzofuran-2-yl]methyl}amino)phenyl]carbonyl}(methyl)amino]propanoic acid]	86%
CCC(Nc1ccc(C(=O)N(C)CCC(=O)O)cc1)c1oc2ccc(OCc3ccccc3)cc2c1C (stereo not shown) [Example A179, 3-[{[4-({1-[5-(benzyloxy)-3-methyl-1-benzofuran-2-yl]propyl}amino)phenyl]carbonyl}(methyl)amino]propanoic acid]	84%
Cc1c(C(Nc2ccc(C(=O)N(C)CCC(=O)O)cc2)C(C)C)oc2ccc(OC3CCOCC3)cc12 (stereo not shown) [Example A180, 3-(methyl{[4-({2-methyl-1-[3-methyl-5-(tetrahydro-2H-pyran-4-yloxy)-1-benzofuran-2-yl]propyl}amino)phenyl]carbonyl}amino)propanoic acid]	83%
Cc1c(C(Nc2ccc(C(=O)N(C)CCC(=O)O)cc2)C2CCCCC2)oc2ccc(-c3cnn(C)c3)cc12 (stereo not shown) [Example A181, 3-[{[4-({cyclohexyl[3-methyl-5-(1-methyl-1H-pyrazol-4-yl)-1-benzofuran-2-yl]methyl}amino)phenyl]carbonyl}(methyl)amino]propanoic acid]	88%
